Test results: patent US12195452B2, “N-(4-(oxazol-5-yl)phenyl) chromane-3-carboxamide derivatives and related compounds as stimulators of the production of retinal precursor cells for the treatment of neuroretinal diseases” (ENDOGENA THERAPEUTICS, INC., priority 2018, dated 2025)

Test system: retinal precursor cells
Assay: Sphere passaging and high-throughput drug screening: proliferation of retinal precursor cells from the ciliary epithelium, cell number after one week
Assay type: cell-based, mammalian
Conditions: for Cell proliferation within one week [%]: control experiment (absence of a compound) = 100, cells grown for one week
Protocol: Kynurenic Acid (0.2 mg/mL), trypsin (1.33 mg/mL), and hyaluronidase (0.67 mg/mL) were weighed out and dissolved in high magnesium/low calcium artificial cerebral spinal fluid (aCSF) at 37° C. Fibroblast growth factor 2 (FGF2; 10 ng/mL) and heparin (2 μg/mL) were added to 100 mL of serum-free media (SFM). Ovomucoid trypsin inhibitor (1 mg/mL) was dissolved in warm SFM and sterile filtered ([…]).
A dissecting microscope, cold light source, and sterile surgical instruments were set up inside of a sterile biological safety cabinet (BSC). Mammalian eyes were enucleated and placed in a petri dish containing cold, sterile aCSF. Under the dissecting microscope, hair, connective tissue, and the dorsal and ventral oblique muscles were cleared from the scleral/corneal border with two sets of forceps. Next, curved or angled micro-dissecting scissors were used to cleave any remaining extraocular muscle tissue, the optic nerve, and cut the eyeball into symmetrical halves; beginning and finishing the cut from the hole left by the optic nerve. Using two sets of forceps to grasp the cornea, the two eye halves were peeled apart. The lens, optic nerve, and vitreous were separated from the eye shells and the eye shells were transferred into a new petri dish (also containing cold, sterile aCSF). To isolate the ciliary epithelium (CE), eye shells were oriented with the cornea on the right and retinal pigmented epithelium (RPE) on the left. A pair of straight forceps were used to pin down the eye shell on the RPE side while a scalpel blade was inserted between the CE and the iris, using pressure to slice the iris/cornea side off from the rest of the shell. Next, the scalpel was run along the border between the CE and the RPE to obtain the CE isolated as a thin strip of tissue. The CE strips were then transferred to a 35 mm dish containing 2 mL of dispase solution (Sigma; T1005) and incubated for 10 minutes at 37° C. Next, the strips were transferred from dispase into a 35 mm dish containing 2 mL of sterile filtered kynurenic acid, trypsin and hyaluronidase solution and incubated at 37° C. for 10 minutes. After incubation, the dish was returned to the dissecting scope, and the CE strips were pinned down with straight, non-serrated forceps, while non-serrated curved forceps were used to scrape the CE off from the underlying sclera. The bare scleral strips were then discarded, such that only the CE cells remained in the enzyme solution. Using a fire-polished, cotton-plugged glass pipette, the cells and enzyme solution were transferred to a 15 mL tube and triturated approximately 45 times to break apart the tissue. The 15 mL tube/cell suspension was centrifuged for 5 minutes at 1500 rpm. The supernatant was gently aspirated from the resulting pellet using a fire-polished, cotton-plugged glass pipette and 2 mL of trypsin inhibitor solution was added to the pellet. Using a small borehole, fire-polished, cotton-plugged glass pipette, the sample was triturated approximately 45 times until it was a single-cell suspension. The 15 mL tube/cell suspension was centrifuged for 5 minutes at 1500 rpm. The supernatant was gently aspirated from the resulting pellet and 1-2 mL of SFM with FGF2 and heparin (plating media) was added. The cells and media were mixed to ensure a uniform cell suspension and a 10 uL sample was taken and cell density was determined. The cells were then seeded and cultured at 10c/μL in culture-treated plates or flasks. After one week, roughly 1 in 500 cells proliferated to form free-floating, clonal spheres greater than 80 μm in diameter.
Human-derived spheres were passaged using the kynurenic acid, trypsin, hyaluronidase enzyme solution with the addition of collagenase I (0.5 mg/mL), collagenase II (0.5 mg/mL) and elastase (0.1 mg/mL). Mouse-derived spheres were passaged using hyaluronidase (0.67 mg/mL), collagenase I (0.5 mg/mL), and collagenase II (0.5 mg/mL) dissolved in Accustase solution (Sigma; SCR005). […]

Compound | Cell proliferation within one week [%] | increase of cell proliferation (within one week, over control) [%]
O=C(CC1Cc2ccccc2O1)Nc1ccc(-c2cnco2)c(Cl)c1 (racemic) [Compound 34, N-(3-chloro-4-(oxazol-5-yl)phenyl)-2-(2,3-dihydrobenzofuran-2-yl)acetamide] | 129 | 
O=C(Nc1ccc(-c2cnco2)c(Cl)c1)C1COc2ccccc21 (racemic) [Compound 35, N-(3-chloro-4-(oxazol-5-yl)phenyl)-2,3-dihydrobenzofuran-3-carboxamide] | 125 | 
O=C(Nc1ccc(-c2cnco2)c(Cl)c1)C1Cc2ccccc2C1 (racemic) [Compound 36, N-(3-chloro-4-(oxazol-5-yl)phenyl)-2,3-dihydro-1H-indene-2-carboxamide] | 124 | 
O=C(Nc1ccc(-c2cnco2)c(Cl)c1)C1COc2cc(F)ccc2C1 (racemic) [Compound 37, N-(3-chloro-4-(oxazol-5-yl)phenyl)-7-fluorochromane-3-carboxamide] | 158 | 
O=C(Nc1ccc(-c2cnco2)c(Cl)c1)C1COc2ccc(Cl)cc2C1 (racemic) [Compound 38, 6-chloro-N-(3-chloro-4-(oxazol-5-yl)phenyl)chromane-3-carboxamide] | 122 | 58
O=C(Nc1ccc(-c2cnco2)c(Cl)c1)C1COc2c(F)cc(F)cc2C1 (racemic) [Compound 39, N-(3-chloro-4-(oxazol-5-yl)phenyl)-6,8-difluorochromane-3-carboxamide] | 132 | 
COc1cccc2c1CC(C(=O)Nc1ccc(-c3cnco3)c(Cl)c1)CO2 (racemic) [Compound 40, N-(3-chloro-4-(oxazol-5-yl)phenyl)-5-methoxychromane-3-carboxamide] | 107 | 
O=C(Nc1ccc(-c2cnco2)c(Cl)c1)C1COc2ccccc2O1 (racemic) [Compound 41, N-(3-chloro-4-(oxazol-5-yl)phenyl)-2,3-dihydrobenzo[b][1,4]dioxine-2-carboxamide] | 114 | 
O=C(Nc1ccc(-c2cnco2)c(Cl)c1)C1COc2ccccc2C1 (single isomer, unassigned; (-)) [Compound 21, (−)-N-(3-chloro-4-(1,3-oxazol-5-yl)phenyl)chromane-3-carboxamide] | 126 | 
Cc1cc(NC(=O)C2COc3ccccc3C2)ccc1-c1cnco1 (centres unmarked) [Compound 25, N-(3-methyl-4-(oxazol-5-yl)phenyl)chromane-3-carboxamide] | 120 | 
O=C(Nc1ccc(-c2cnco2)c(Cl)c1)C1COc2ccc(F)cc2C1 (centres unmarked) [Compound 42, N-(3-chloro-4-(oxazol-5-yl)phenyl)-6-fluorochromane-3-carboxamide] | 124 | 
N-(2-(difluoromethoxy)-4-(oxazol-5-yl)phenyl)chroman-3-carboxamide [Compound 26] | 138 | 
N-(2-(difluoromethoxy)-4-(oxazol-5-yl)phenyl)chroman-3-carboxamide [Compound 27] | 106 | 
